According to US20200062705A1, “NOVEL CRYSTALLINE FORMS” (Biogen MA Inc., priority 2017, published 2020):

Columns and labels:
Format in all cases: physicochemical
[1] = Relative stability of crystalline forms; details: comparison among crystalline forms identified
[2] = Powder bulk density analysis (ring shear tester); details: for Initial Density: initial bulk density, corresponds to x = 0 in FIG. 21, mass of powder normalized by volume of the cell; for Density results (Table 21 and FIG. 21) compared with the product of Route D (E12): initial density and density at varying stresses, higher density = more ideal packing
Description: Solid forms prepared according to the procedures described for Routes D, E, and F (Examples 12-14, respectively) were subjected to powder bulk density analysis in accordance with the following procedure.
A ring shear tester (RST-XS.s, Dietmar Schulze, Wolfenbüttel, Germany) with RST CONTROL 95 software was used for the bulk density analysis. For this analysis, Low-Stress Shear Cell, XS-Lr0, bottom ring was over-filled with small portions of powder using a spatula. The excess powder was removed by gently scraping off the powder with the spatula until the powder was flush with the top of the ring. The bottom ring was weighed and the total mass was entered. When prompted the shear cell lid was attached to the loading rod and the filled bottom ring placed on the driving axle for the test. The initial bulk density was calculated by the control software from the mass of powder normalized by the volume of the cell. During the shear test, 5 preshear normal stresses, 0.1, 0.2, 0.3, 0.4, and 0.5 kPa were applied to the powder before it was sheared until steady state was achieved. At each preshear normal stress, the powder was sheared to failure at 5 increasing normal stresses between 0 and the preshear normal stress to generate corresponding shear stresses at failure. A yield locus was generated by applying a linear regression to the shear stresses as a function of the normal stress plot. The Major Principal Stress (x-axis) was the maximum value obtained when a Mohr's circle was drawn through the preshear normal stress and tangential to the yield locus. The volume of powder at each steady state was determined from the change in height of the lid and, together with the initial powder mass, used to calculate the powder bulk densities (y-axis).

[3] = Powder flow function analysis (ring shear tester); details: FIG. 22; lower flow function curve = good flow
Description: Solid forms prepared according to the procedures described for Routes D, E, and F (Examples 12-14, respectively) were subjected to powder flow function analysis in accordance with the following procedure:
A ring shear tester (RST-XS.s, Dietmar Schulze, Wolfenbüttel, Germany) with RST CONTROL 95 software was used for the flow function analysis. For this analysis, Low-Stress Shear Cell, XS-Lr0, bottom ring was over-filled with small portions of powder using a spatula. The excess powder was removed by gently scraping off the powder with the spatula until the powder was flush with the top of the ring. The bottom ring was weighed and the total mass was entered. When prompted the shear cell lid was attached to the loading rod and the filled bottom ring placed on the driving axle for the test. To obtain a flow function, 5 yield loci were determined using the “Stress Walk” function in the control software. During the shear test, 5 preshear normal stresses, 0.1, 0.2, 0.3, 0.4, and 0.5 kPa were applied to the powder to generate the 5 yield loci. At each preshear normal stress, the powder was sheared to failure at 5 equally-spaced normal stresses between 0 and the preshear normal stress to generate corresponding shear stresses at failure. Each yield locus was derived by applying a linear regression to the shear stresses as a function of the normal stress plot. […]

[4] = Powder time consolidation behavior analysis (ring shear tester); details: FIG. 23; 0 hrs vs 12 hrs storage, x=250 Pa
Description: Solid forms prepared according to the procedures described for Routes E and F (Examples 13 and 14, respectively) were subjected to powder time consolidation behavior analysis in accordance with the following procedure.
A ring shear tester (RST-XS.s, Dietmar Schulze, Wolfenbüttel, Germany) with RST CONTROL 95 software was used for the flow function analysis. For this analysis, Low-Stress Shear Cell, XS-Lr0, bottom ring was over-filled with small portions of powder using a spatula. The excess powder was removed by gently scraping off the powder with the spatula until the powder was flush with the top of the ring. The bottom ring was weighed and the total mass was entered. When prompted the shear cell lid was attached to the loading rod and the filled bottom ring placed on the driving axle for the test. For the time consolidation test, a yield locus was first obtained by applying a 0.1 kPa preshear stress and 5 normal stresses equally spaced between 0 and the preshear stress to the powder and determining the corresponding shear stresses. A fresh powder sample was again prepared and conditioned to a similar steady state as that for the just obtained yield locus. […] The change in the shear stress obtained after this new conditioned state was determined and that represents the time consolidation behavior of the powder. […]

Structure (SMILES)	Stability of the crystalline form relative to other forms [1]	Initial Density [2]	Density results (Table 21 and FIG. 21) compared with the product of Route D (E12) [2]	Powder flow (flow function curve: unconfined yield strength vs major principal stress) compared with a product of Route D (E12) [3]	Time consolidation effect (unconfined yield strength gained on storage) [4]
Cl.NC(=O)[C@@H]1CC[C@H](c2ccc(OCc3ccccc3F)cc2)N1 [Form 9, (5R)-5-(4-{[(2-Fluorophenyl)methyl]oxy}phenyl)-L-prolinamide Hydrochloride Form 9 (Anhydrous B)]	less stable than Anhydrous Form A (Form 1)				
Cl.NC(=O)[C@@H]1CC[C@H](c2ccc(OCc3ccccc3F)cc2)N1 [Example E13, (5R)-5-(4-{[(2-Fluorophenyl)methyl]oxy}phenyl)-L-prolinamide Hydrochloride (Anhydrous; Route E)]		0.565 g/mL	far superior	better	
Cl.NC(=O)[C@@H]1CC[C@H](c2ccc(OCc3ccccc3F)cc2)N1 [Form 10, (5R)-5-(4-{[(2-Fluorophenyl)methyl]oxy}phenyl)-L-prolinamide Hydrochloride Form 10 (Anhydrous C)]	less stable than Anhydrous Form A (Form 1)				
Cl.NC(=O)[C@@H]1CC[C@H](c2ccc(OCc3ccccc3F)cc2)N1 [Form 1, (5R)-5-(4-{[(2-Fluorophenyl)methyl]oxy}phenyl)-L-prolinamide Hydrochloride Form 1 (Anhydrous A)]	most stable crystalline form identified to date				
Cl.NC(=O)[C@@H]1CC[C@H](c2ccc(OCc3ccccc3F)cc2)N1 [Example E14, (5R)-5-(4-{[(2-Fluorophenyl)methyl]oxy}phenyl)-L-prolinamide Hydrochloride (Anhydrous; Route F)]		0.512 g/mL	far superior	better	does not exhibit as much of a consolidation effect as the product of Route E (E13)
Cl.NC(=O)[C@@H]1CC[C@H](c2ccc(OCc3ccccc3F)cc2)N1 [Example E12, (5R)-5-(4-{[(2-Fluorophenyl)methyl]oxy}phenyl)-L-prolinamide Hydrochloride (Anhydrous; Route D)]		0.254 g/mL			
